According to patent US20070122501A1, “Formulations containing astragalus extracts and uses thereof” (Hong Kong University of Science and Technology, priority 2003, published 2007):

What was measured:
[1] = test system: aging (PD34) adult keratinocytes; assay: Scratch (wound healing) assay in aging adult keratinocytes (FIGS. 6, 8, 9); format: cell-based, human; conditions: FIG. 8, comparison of extract and PDGF
Text: (§1) Cell lines used in these experiments were obtained from Cascade Biologics, Inc. Neonatal keratinocytes (HEKneo-P) were obtained from a pool generated from three donors, designated HEKn(12), PD 8.46; HEKn(15), PD 9.3; and HEKn(16), PD 5.16. Adult keratinocytes were obtained from a single donor, designated HEKa(18). The terms “neonatal” and “adult” refer to the age of the donor, while the terms “young” and “aging” or “late passage” refer to the age of the cell culture, and correspond to the number of population doublings (indicated as PD no.).
(§2) Cells are plated in flasks (5×10^5 cells per flask) and cultured for two days in a humidified chamber at 5% CO2, 37° C. To create the “wound”, a 2 ml plastic pipette is gently dragged to “scratch” the cell surface. The ideal wound is approximately 2-3 mm wide and 50 mm long (along the long axis of the tissue culture flask). The cells are retreated with medium containing either vehicle (DMSO; control sample) or test compositions at multiple concentrations. […]
(§3) Amount of wound closure is determined by measuring the width of the wound over time for extract-treated samples relative to vehicle-treated or other control cells. […] Percentage of wound healing is calculated by the following formula: WH=100−[100×Wn/W0], where Wn is the width of the wound on day n and W0 is the width of the wound on day one (immediately after scratching).

[2] = test system: late passage (PD40) neonatal keratinocytes; assay: Scratch (wound healing) assay in late passage / aging neonatal keratinocytes (FIGS. 7, 10); format: cell-based, human; conditions: FIG. 10
Text: as §1, §2, §3

Substance: PDGF
- state of scratched cell layer by day 4 [1]: confluent or near-confluent
- wound closure after four days [2]: complete or near-complete wound closure
